Type in all cases: in vivo
One assay deals with corn. Nature of the assay: Early growth of corn in transparent cups, dry weight of seedlings. Conditions: for Dry Weight of Roots / Total Dry Weight of Plant + Roots / % Difference from Baseline for Plant + Roots / % Difference from Baseline for Roots Only: corn; for Dry Weight of Roots / Total Dry Weight of Plant + Roots: 24 days after planting, .P buried at planting, .L buried 11 days after planting; for % Difference from Baseline for Plant + Roots / % Difference from Baseline for Roots Only: 24 days, compared to the baseline with the highest total weight. The protocol: Each cup was given 0.2 g urea in 25 mL of solution. Two corn seeds were planted in each cup 1 inch deep and 3 inches apart. The cups holding the soil were transparent plastic and were placed inside opaque cups. The seeds were planted in the soil against the inside surface of the transparent cups and the outer opaque cups protected the roots from light during growth. By removing the inner cups, the roots were viewed and pictures taken without disturbing the plants as they were developing and therefore a view of the early growth of the roots was possible. […] After planting the seeds, the mixtures in Table 12 were buried 1.27 cm (½ inch) deep in the center of each cup. Some of these were buried on the same day as the seed was planted (noted as .P in Table 13), and others were buried 11 days after the seed was planted (noted as .L in Table 13). […] If two seeds sprouted in a cup, the second was immediately removed. One cup for each formulation was tested. The baseline was tested in duplicate. Twenty-four days after planting the corn, the plants with roots were gently removed from the cups, rinsed, dried, and weighed. The % differences shown in Table 13 are compared to the baseline with the highest weight of total weight for the plant and roots.

A further assay relates to wheat. Nature of the assay: Early growth of wheat in transparent cups, dry weight of seedlings. Conditions: for Dry Weight of Roots Only / Dry Weight of Total Plant + Roots: 28 days after planting, .P buried at planting, .L buried 11 days after planting; for % Difference for Plant + Roots / % Difference for Roots Only: 28 days, compared to the baseline with the highest total weight. The protocol: Each cup was given 0.2 g urea in 25 mL of solution. Four wheat seeds were planted in each cup 1 inch deep and 3 inches apart. The cups holding the soil were transparent plastic and were placed inside opaque cups. The seeds were planted in the soil against the inside surface of the transparent cups and the outer opaque cups protected the roots from light during growth. By removing the inner cups, the roots were viewed and pictures taken without disturbing the plants as they were developing and therefore a view of the early growth of the roots was possible. […] After planting the seeds, the mixtures in Table 12 were buried 1.27 cm (½ inch) deep in the center of each cup. Some of these were buried on the same day as the seeds were planted (noted as .P in Table 14), and others were buried 11 days after the seed was planted (noted as .L in Table 14). If more than two seeds sprouted in a cup, the seedlings were removed to allow only two to remain. One of each formulation was tested. The baseline was tested in duplicate. Twenty-eight days after planting the wheat, the plants with roots were gently removed from the cups, rinsed, dried, and weighed.

The next assay relates to cotton. Nature of the assay: Early growth of cotton in transparent cups, dry weight of plants and roots. Conditions: cotton cup test. The protocol:
Each cup was given 0.2 g urea in 25 mL of solution. […] The cups holding the soil were transparent plastic and were placed inside opaque cups. The seeds were planted in the soil against the inside surface of the transparent cups and the outer opaque cups protected the roots from light during growth. By removing the inner cups, the roots were viewed and pictures taken without disturbing the plants as they were developing and therefore a view of the early growth of the roots was possible. […] If two seeds sprouted in a cup, the second was immediately removed.

For the compound `O=C([O-])O.[K+]` [A.P, potassium bicarbonate], in the assay with corn, the “Dry Weight of Roots” value is 0.2313 g, the “Total Dry Weight of Plant + Roots” value turned out to be 0.5292 g, the “% Difference from Baseline for Plant + Roots” value is on record as −20% and the “% Difference from Baseline for Roots Only” value was −29%. Besides, in the assay with corn (listed as A.L), the “Dry Weight of Roots” value is 0.4121 g, the “Total Dry Weight of Plant + Roots” value is reported as 0.7818 g, the “% Difference from Baseline for Plant + Roots” value is reported as 18% and the “% Difference from Baseline for Roots Only” value stood at 26%. Also, in the assay on wheat, the “Dry Weight of Roots Only” value was determined as 0.0669 g, the “Dry Weight of Total Plant + Roots” value is on record as 0.2337 g, the “% Difference for Plant + Roots” value is recorded as −8% and the “% Difference for Roots Only” value is −46%. In the assay with wheat (listed as A.L), the “Dry Weight of Roots Only” value was determined as 0.1166 g, the “Dry Weight of Total Plant + Roots” value was 0.2670 g, the “% Difference for Plant + Roots” value was found to be 5% and the “% Difference for Roots Only” value is recorded as −6%.

Regarding `O=C([O-])O.[K+]` [H.P, potassium bicarbonate], in the assay on corn, the “Dry Weight of Roots” value is on record as 0.2744 g, the “Total Dry Weight of Plant + Roots” value stood at 0.5252 g, the “% Difference from Baseline for Plant + Roots” value is −20% and the “% Difference from Baseline for Roots Only” value is listed as −16%. In addition, in the assay with corn (listed as H.L), the “Dry Weight of Roots” value amounted to 0.2538 g, the “Total Dry Weight of Plant + Roots” value is 0.5597 g, the “% Difference from Baseline for Plant + Roots” value is listed as −15% and the “% Difference from Baseline for Roots Only” value is listed as −22%. Further, in the assay on wheat, the “Dry Weight of Roots Only” value stood at 0.1334 g, the “Dry Weight of Total Plant + Roots” value was 0.3030 g, the “% Difference for Plant + Roots” value came out at 19% and the “% Difference for Roots Only” value came out at 7%. In the assay on wheat (listed as H.L), the “Dry Weight of Roots Only” value was 0.1286 g, the “Dry Weight of Total Plant + Roots” value is given as 0.2881 g, the “% Difference for Plant + Roots” value came out at 13% and the “% Difference for Roots Only” value stood at 3%.

Regarding `O=C([O-])O.[K+]` [KBC, potassium bicarbonate], the “Benefit to early growth of corn (in words)” value with corn (corn cup test) is given as “did not provide a benefit”. The “Early growth of cotton plants and roots (in words)” value with cotton is reported as “produced more benefit with early growth of cotton than sodium bicarbonate”.

The values are drawn from patent US20220267231A1, “FERTILIZER CONTAINING A SEED GRIND AND A METHOD OF USING THE FERTILIZER TO ENHANCE PLANT GROWTH” (Innovations for World Nutrition, LLC, priority 2020, published 2022).
